Article PMC10035389, “Safety, Tolerability, and Pharmacokinetics of TAK-931, a Cell Division Cycle 7 Inhibitor, in Patients with Advanced Solid Tumors: A Phase I First-in-Human Study” (Cancer Research Communications, 2022)
Where two headings read alike, the source gives them in different places.

Experiment: Plasma and urine pharmacokinetics, noncompartmental analysis
Format: in vivo, human
Conditions: for half-life / Tmax: human, plasma; for half-life: po; for Tmax: oral
Experimental: DLTs included: cycle 1 grade ≥3 hematologic and non-hematologic events or grade 2 non-hematologic events considered by the investigator to be TAK-931-related, grade 2 ejection fraction decrease, >2 weeks delay in initiating cycle 2 (1 week for schedules D and E), and >50% TAK-931 dose reduction in cycle 1 due to treatment-related adverse events (AEs; see Supplementary Materials and Methods for full DLT criteria). Toxicity was evaluated by NCI Common Terminology Criteria for Adverse Events (version 4.03). Tumor response was measured using the RECIST (version 1.1) ([16]). Serial blood samples for pharmacokinetic analysis were collected during cycle 1 on days 1 and 7 (schedule B), 1 and 8 (schedules A and D), or 1 and 9 (schedule E). Pharmacokinetic parameters were estimated from concentration–time profiles using noncompartmental methods with WinNonlin® Phoenix™ version 8.1 (Certara, Princeton, NJ). pMCM2 was detected semiquantitatively by IHC of histologic sections of formalin-fixed, paraffin-embedded skin and tumor biopsies using anti-pMCM2 (3378-1, Epitomics Inc.; ref. [15]). Quantitative image analysis determined pMCM2 levels as “histologic score nuclei (H-score).” Skin punch biopsies (2–4 mm) were obtained during screening or predose on cycle 1, day 1 and for patients in schedules A, B, and D, postdose on any drug dosing day after 3 consecutive dosing days in cycle 1. A postdose skin biopsy was obtained on day 9 in schedule E. Fresh tumor biopsy pairs were collected predose and postdose on any dosing day after the completion of 3 consecutive dosing days in cycle 1 from patients who received doses considered to have biological effect.
The safety population included patients who received ≥1 dose of TAK-931. The pharmacodynamic-evaluable population comprised patients from the safety population with a baseline and ≥1 additional postbaseline biopsy sample that was suitable for pMCM2 analysis. The pharmacokinetic-evaluable population included patients with sufficient dosing and TAK-931 concentration–time data to estimate pharmacokinetic parameters. The response-evaluable population included patients in the safety population with measurable disease at baseline and ≥1 postbaseline response assessment.

Structure (SMILES): Cc1[nH]ncc1-c1cc2nc([C@@H]3CC4CCN3CC4)[nH]c(=O)c2s1 [TAK-931, simurosertib]
- Accumulation following higher doses (120 and 150 mg): minor accumulation
- Renal clearance (CLr) as share of total apparent clearance (estimated amount excreted in urine, n = 79): approximately 8%
- half-life (50 mg, oral administration of 50 mg, read-out: Terminal half-life (converted)): ~300 min
- half-life (oral administration, read-out: Estimated T1/2): 300 to 360 min
- half-life (oral administration, read-out: Mean half-life (T1/2)): 275 to 392 min
- Tmax (50 mg dose, read-out: Tmax): ~2 h
- Tmax (postdose, over the dose range of 20–50 mg, read-out: Median time to maximum plasma concentration (Tmax)): 1 to 4 h
- Systemic exposures between day 1 and days 7, 8, or 9 (multiple dosing): mostly unchanged
- Plasma exposure vs dose (single- and multiple-dose administration over 20–50 mg): approximately dose proportional
- Systemic exposure vs dose (dose-normalized AUC24) (single- and multiple-dose administration over the range 20–150 mg): approximately dose proportional
